In US6355799B1, “Substituted benzene compounds, process for their preparation, and herbicidal and defoliant compositions containing them” (ISK Americas Incorporated, priority 1997, dated 2002):

How the values were obtained:
Type in all cases: in vivo
[1] = test system: redroot pigweed (Amaranthus retroflexus, AMARE); assay: Pre-emerge test, greenhouse herbicide activity screening; conditions: pre-emerge, rated 14 days after application, 0 = no damage, 100 = complete death
In short: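 Rating: 0–100 visual injury, 14 DAA. Application: acetone, 187 l/ha, 15–1000 g ai/ha, flat-fan track sprayer with nozzle 40–45 cm above soil or canopy. Post-emerge runs used 0.25% v/v surfactant on 2–3 leaf plants.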

[2] = test system: barnyardgrass (Echinochloa crus-galli, ECHCG); assay: as above; conditions: pre-emerge, rated 14 days after application, 0 = no damage, 100 = complete death
In short: (§1)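 Visual ratings on a 0-100 scale (0 no damage, 100 all plants dead) were taken at 14 days after treatment. Rates of 15-1000 g ai/ha in acetone, 187 l/ha, were sprayed onto soil one day after planting (pre-emerge) or onto 2-3 leaf plants with 0.25% v/v surfactant (post-emerge).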

[3] = test system: green foxtail (Setaria viridis, SETVI); assay: as above; conditions: pre-emerge, rated 14 days after application, 0 = no damage, 100 = complete death
In short: as §1

[4] = test system: ivyleaf morningglory (Ipomoea hederacea, IPOHE); assay: as above; conditions: pre-emerge, rated 14 days after application, 0 = no damage, 100 = complete death
In short: as §1

[5] = test system: johnsongrass (Sorghum halepense, SORHA); assay: as above; conditions: pre-emerge, rated 14 days after application, 0 = no damage, 100 = complete death
In short: as §1

[6] = test system: lambsquarters (Chenopodium album, CHEAL); assay: as above; conditions: pre-emerge, rated 14 days after application, 0 = no damage, 100 = complete death
In short: as §1

[7] = test system: large crabgrass (Digitaria sanguinalis, DIGSA); assay: as above; conditions: pre-emerge, rated 14 days after application, 0 = no damage, 100 = complete death
In short: as §1

[8] = test system: sicklepod (Cassia obtusifolia, CASOB); assay: as above; conditions: pre-emerge, rated 14 days after application, 0 = no damage, 100 = complete death
In short: as §1

[9] = test system: velvetleaf (Abutilon theophrasti, ABUTH); assay: as above; conditions: pre-emerge, rated 14 days after application, 0 = no damage, 100 = complete death
In short: as §1

[10] = test system: field corn (Zea mays L., var. Dekalb 535, CORN); assay: Pre-emerge test, crop safety; conditions: pre-emerge, rated 14 days after application, 0 = no damage, 100 = complete death
In short: (§2)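 Fourteen days after spraying, crop and weed injury was graded visually from 0, no effect, to 100, every plant dead. Test substances were dissolved in acetone and applied at 15–1000 g ai/ha with a flat-fan nozzle. Application was either pre-emergence, one day after sowing, or post-emergence at the 2–3 leaf stage.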

[11] = test system: upland rice (Oryza sp., var. Tebonnet, RICE); assay: Pre-emerge test, crop safety; conditions: pre-emerge, rated 14 days after application, 0 = no damage, 100 = complete death
In short: as §2

[12] = test system: barnyardgrass (Echinochloa crus-galli, ECHCG); assay: Post-emerge test, greenhouse herbicide activity screening; conditions: phytotoxicity rating 0-100 (0 no damage, 100 complete death), 14 days after application
In short: (§3)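 Each test used a mechanized track sprayer delivering 187 l/ha of acetone solution at 15–1000 g ai/ha. Post-emerge foliage at 2–3 leaves was treated with added 0.25% v/v non-ionic surfactant and bottom-watered only. Injury was assessed on day 14, where 100 means total kill.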

[13] = test system: green foxtail (Setaria viridis, SETVI); assay: as above; conditions: phytotoxicity rating 0-100 (0 no damage, 100 complete death), 14 days after application
In short: as §3

[14] = test system: ivyleaf morningglory (Ipomoea hederacea, IPOHE); assay: as above; conditions: phytotoxicity rating 0-100 (0 no damage, 100 complete death), 14 days after application
In short: as §3

[15] = test system: johnsongrass (Sorghum halepense, SORHA); assay: as above; conditions: phytotoxicity rating 0-100 (0 no damage, 100 complete death), 14 days after application
In short: as §3

[16] = test system: lambsquarters (Chenopodium album, CHEAL); assay: as above; conditions: phytotoxicity rating 0-100 (0 no damage, 100 complete death), 14 days after application
In short: as §3

[17] = test system: large crabgrass (Digitaria sanguinalis, DIGSA); assay: as above; conditions: phytotoxicity rating 0-100 (0 no damage, 100 complete death), 14 days after application
In short: as §3

[18] = test system: redroot pigweed (Amaranthus retroflexus, AMARE); assay: as above; conditions: phytotoxicity rating 0-100 (0 no damage, 100 complete death), 14 days after application
In short: as §3

[19] = test system: sicklepod (Cassia obtusifolia, CASOB); assay: as above; conditions: phytotoxicity rating 0-100 (0 no damage, 100 complete death), 14 days after application
In short: as §3

[20] = test system: velvetleaf (Abutilon theophrasti, ABUTH); assay: as above; conditions: phytotoxicity rating 0-100 (0 no damage, 100 complete death), 14 days after application
In short: as §3

[21] = test system: field corn (Zea mays L., var. Dekalb 535, CORN); assay: Post-emerge test, crop safety; conditions: phytotoxicity rating 0-100 (0 no damage, 100 complete death), 14 days after application
In short: as §1

[22] = test system: upland rice (Oryza sp., var. Tebonnet, RICE); assay: Post-emerge test, crop safety; conditions: phytotoxicity rating 0-100 (0 no damage, 100 complete death), 14 days after application
In short: as §1

COc1c(Cl)cc(F)c(-n2c(=O)cc(C(F)(F)F)n(C)c2=O)c1N(C(=O)C=C(C)C)C(=O)C=C(C)C [2-8]
Pre-emerge Herbicidal Activity AMARE (phytotoxicity rating, scale 0-100) ([1]; 63 g ai/ha): 40
Pre-emerge Herbicidal Activity AMARE (phytotoxicity rating, scale 0-100) ([1]; 250 g ai/ha): 100
Pre-emerge Herbicidal Activity ECHCG (phytotoxicity rating, scale 0-100) ([2]; 63 g ai/ha): 0
Pre-emerge Herbicidal Activity ECHCG (phytotoxicity rating, scale 0-100) ([2]; 250 g ai/ha): 0
Pre-emerge Herbicidal Activity SETVI (phytotoxicity rating, scale 0-100) ([3]; 63 g ai/ha): 90
Pre-emerge Herbicidal Activity SETVI (phytotoxicity rating, scale 0-100) ([3]; 250 g ai/ha): 90
Pre-emerge Herbicidal Activity IPOHE (phytotoxicity rating, scale 0-100) ([4]; 63 g ai/ha): 0
Pre-emerge Herbicidal Activity IPOHE (phytotoxicity rating, scale 0-100) ([4]; 250 g ai/ha): 100
Pre-emerge Herbicidal Activity SORHA (phytotoxicity rating, scale 0-100) ([5]; 63 g ai/ha): 40
Pre-emerge Herbicidal Activity SORHA (phytotoxicity rating, scale 0-100) ([5]; 250 g ai/ha): 40
Pre-emerge Herbicidal Activity CHEAL (phytotoxicity rating, scale 0-100) ([6]; 63 g ai/ha): 60
Pre-emerge Herbicidal Activity CHEAL (phytotoxicity rating, scale 0-100) ([6]; 250 g ai/ha): 100
Pre-emerge Herbicidal Activity DIGSA (phytotoxicity rating, scale 0-100) ([7]; 63 g ai/ha): 80
Pre-emerge Herbicidal Activity DIGSA (phytotoxicity rating, scale 0-100) ([7]; 250 g ai/ha): 80
Pre-emerge Herbicidal Activity CASOB (phytotoxicity rating, scale 0-100) ([8]; 63 g ai/ha): 0
Pre-emerge Herbicidal Activity CASOB (phytotoxicity rating, scale 0-100) ([8]; 250 g ai/ha): 0
Pre-emerge Herbicidal Activity ABUTH (phytotoxicity rating, scale 0-100) ([9]; 63 g ai/ha): 0
Pre-emerge Herbicidal Activity ABUTH (phytotoxicity rating, scale 0-100) ([9]; 250 g ai/ha): 100
Pre-emerge crop damage CORN (phytotoxicity rating, scale 0-100) ([10]; 63 g ai/ha): 15
Pre-emerge crop damage CORN (phytotoxicity rating, scale 0-100) ([10]; 250 g ai/ha): 15
Pre-emerge crop damage RICE (phytotoxicity rating, scale 0-100) ([11]; 63 g ai/ha): 50
Pre-emerge crop damage RICE (phytotoxicity rating, scale 0-100) ([11]; 250 g ai/ha): 50
Post-emerge Herbicidal Activity ECHCG ([12]; 63 g ai/ha): 0
Post-emerge Herbicidal Activity ECHCG ([12]; 250 g ai/ha): 0
Post-emerge Herbicidal Activity SETVI ([13]; 63 g ai/ha): 0
Post-emerge Herbicidal Activity SETVI ([13]; 250 g ai/ha): 0
Post-emerge Herbicidal Activity IPOHE ([14]; 63 g ai/ha): 0
Post-emerge Herbicidal Activity IPOHE ([14]; 250 g ai/ha): 50
Post-emerge Herbicidal Activity SORHA ([15]; 63 g ai/ha): 0
Post-emerge Herbicidal Activity SORHA ([15]; 250 g ai/ha): 0
Post-emerge Herbicidal Activity CHEAL ([16]; 63 g ai/ha): 0
Post-emerge Herbicidal Activity CHEAL ([16]; 250 g ai/ha): 60
Post-emerge Herbicidal Activity DIGSA ([17]; 63 g ai/ha): 0
Post-emerge Herbicidal Activity DIGSA ([17]; 250 g ai/ha): 0
Post-emerge Herbicidal Activity AMARE ([18]; 63 g ai/ha): 0
Post-emerge Herbicidal Activity AMARE ([18]; 250 g ai/ha): 20
Post-emerge Herbicidal Activity CASOB ([19]; 63 g ai/ha): 0
Post-emerge Herbicidal Activity CASOB ([19]; 250 g ai/ha): 0
Post-emerge Herbicidal Activity ABUTH ([20]; 63 g ai/ha): 0
Post-emerge Herbicidal Activity ABUTH ([20]; 250 g ai/ha): 40
Post-emerge Herbicidal Activity CORN (crop damage) ([21]; 63 g ai/ha): 0
Post-emerge Herbicidal Activity CORN (crop damage) ([21]; 250 g ai/ha): 0
Post-emerge Herbicidal Activity RICE (crop damage) ([22]; 63 g ai/ha): 0
Post-emerge Herbicidal Activity RICE (crop damage) ([22]; 250 g ai/ha): 0
